Columns and labels:
[1] = PK study in monkeys (intravenous and oral); assay type: in vivo, cynomolgus monkeys
Procedure: Male cynomolgus monkeys were supplied from Prestasi Fauna Nusantara Ltd. (Jakarta, Indonesia) and were housed at Shin Nippon Biomedical Laboratories, Ltd. The PK study was performed in a cross-over design with 7 days interval between the doses for monkeys aged 3–4 years old. Monkeys were fasted a day before the PK study and feeding was resumed 4 h postdose. Dosing solution of lenvatinib used was the same as that in the other animal PK studies. Lenvatinib was intravenously administered at the dose of 3 mg/kg via cephalic vein. In oral administration, lenvatinib at 3 mg/kg was dosed by using a nasogastric catheter, followed by giving 30 mL of water to flush the remaining dosing solution in the catheter. The number of monkeys at each dose was four. Approximately 0.5 mL of blood samples were serially collected from the femoral vein using a heparinized syringe at pre-dose, and at 5, 15 and 30 min, and 1, 2, 4, 6, 8, 12 and 24 h post-dose. Plasma sample preparation and sample storage were the same as those in the other PK studies.
PK parameters of lenvatinib were estimated by model independent analysis using a WinNonlin program (Version 4.1, Pharsight Corporation, Mountain View, CA). The time to reach the maximum plasma concentration (Tmax) and the maximum plasma concentration (Cmax) values were obtained directly from the plasma concentration data. Terminal half-life (T1/2) was calculated by ln2/ke, where ke is the slope of the regression line that fits the portion of the terminal phase (at least three time points) in the log-linear concentration–time curve. AUC0–t and AUMC0–t, the area under the concentration–time curves and the area under the first moment curve, from time = zero to time = t, respectively, were calculated using the lenvatinib concentrations in plasma by the linear/log trapezoidal method. AUC0–inf was calculated by AUC0–t + Ct/ke, and AUMC0–inf was AUMC0–t + Ct × t/ke + Ct/(ke)^2, where Ct is the last measurable concentration at time = t. The plasma concentration at time zero for the intravenous dose was extrapolated, while zero was used for the oral doses. Mean residence time (MRT), total plasma clearance (CLtot) and the volume of distribution at steady state (Vdss) were calculated by AUMC0–inf/AUC0–inf, Dose/AUC0–inf and CLtot × MRT, respectively. Oral bioavailability (F) was estimated by comparing dose-normalized AUC0–inf after oral (AUC0–inf.po) and intravenous (AUC0–inf.iv) administration as follows: F (%) = (AUC0–inf.po/AUC0–inf.iv) × 100.

[2] = Stability of lenvatinib in monkey plasma and processed samples; assay type: physicochemical, monkeys; conditions: monkey plasma; for Freeze/thaw stability, mean percentage bias from the theoretical values: 3 cycles; for Frozen stability, mean percentage bias from the theoretical values: below − 15 °C, 6 weeks
Procedure: Calibration samples and QC samples for the reproducibility assessment were prepared by spiking 0.05 mL of the working standard solutions to blank plasma (0.05 mL), and QC samples for the stability assessment were prepared by fortifying 0.05 mL of the solution to 1.5 mL of bank plasma. Lenvatinib concentrations in plasma were 0.005, 0.01, 0.03, 0.1, 0.3, 1, 3, 10, 30, and 100 μg/mL for the calibration samples, and were 0.005, 0.01, 1, and 100 μg/mL for the QC samples for reproducibility assessment. Lenvatinib concentrations of QC samples for the stability assessment were 0.01, 1, and 80 μg/mL.
The developed method for the determination of lenvatinib concentrations in plasma was validated and the following validation parameters including linearity, selectivity, intra- and inter-batch reproducibility, extraction recovery, and stability were evaluated in accordance with the bioanalytical guidelines by United States Food and Drug Administration (US-FDA)[7]. The peak height ratios of lenvatinib to the IS of calibration samples were plotted against the corresponding nominal concentrations of lenvatinib. The calibration curve was prepared by the least square method with 1/(concentration)^2 as the weighting factor. In the linearity assessment, accuracy of each calibration sample was determined to ensure that relative error (RE) at each concentration was within ± 15% (within ± 20% at the LLOQ). In the selectivity assessment, peak heights at the retention times of lenvatinib and the IS should be within 20% and 5% of those of the LLOQ for lenvatinib and the IS, respectively in blank plasma from six individuals. Intra-batch accuracy and precision were evaluated using QC samples at the four concentrations, LLOQ, low QC (LQC), mid QC (MQC), and ULOQ. Six replicates per concentration were assayed to calculate RE and relative standard deviation (RSD). Inter-batch accuracy and precision were evaluated by testing a single sample at each concentration across five batches (n = 5 in total). The acceptance criteria for RE and RSD in the intra- and inter-batch reproducibility should be within ± 15% and 15%, respectively, except at the LLOQ that was within ± 20% and 20%, respectively, was allowed. Extraction recoveries of lenvatinib and the IS from plasma samples of the four species were evaluated. The recoveries of lenvatinib at the low, mid, and high QC levels (triplicates per concentration), and that of the IS (0.5 μg/mL) were determined. Peak heights of lenvatinib after extraction from plasma samples were compared to those of the neat solution with the same concentrations. Stability of lenvatinib in plasma and processed samples was assessed at the low and high QC levels. Lenvatinib concentrations in samples after storage were compared to the theoretical concentrations and RE values were calculated. The RE values should be within ± 15% when considered stable. Freeze–thaw stability in plasma was evaluated up to three freeze–thaw cycles and frozen stability in plasma was evaluated at − 15 °C or below for 4 weeks (mice, rats, and dogs) or 6 weeks (monkeys). Stability in processed samples was assessed at 4 °C for 7 days. Stability of lenvatinib in the standard solutions was evaluated for the stock (100 μg/mL) and the working solution (5 ng/mL). The stability of the IS solution (0.5 μg/mL) was also assessed. The standard solutions were stored at 5 °C for 4 weeks or 6 h at ambient temperature. The peak height of the stored solutions was compared to that of the freshly prepared solution. […]

[3] = male, cynomolgus monkey, plasma, intravenous 3 mg/kg
[4] = male, cynomolgus monkey, plasma, oral 3 mg/kg
[5] = male, cynomolgus, cynomolgus monkey, plasma, oral 3 mg/kg

COc1cc2nccc(Oc3ccc(NC(=O)NC4CC4)c(Cl)c3)c2cc1C(N)=O [lenvatinib, Lenvatinib]
CLint (hepatic intrinsic clearance) ([1]; estimated from oral PK, Fa and Fg assumed unity, BW 5 kg): 37,063 mL/h | MRT [1, 3]: 3.32 ± 0.15 h | half-life [1, 3]: 4.28 ± 0.34 h | Cmax [1, 4]: 2500 ± 450 ng/mL | MRT [1, 4]: 4.23 ± 0.31 h | Tmax ([1]; male, cynomolgus monkey, plasma, oral 3 mg/kg, median (range)): 2 h | AUC(0-inf) ([1]; male, cynomolgus, cynomolgus monkey, plasma, intravenous 3 mg/kg): 12900 ± 1060 ng·h/mL | C0 ([1]; male, cynomolgus, cynomolgus monkey, plasma, intravenous 3 mg/kg, extrapolated): 5170 ± 949 ng/mL | clearance ([1]; male, cynomolgus, cynomolgus monkey, plasma, intravenous 3 mg/kg, read-out: CLtot (converted)): 3.97 mL/min/kg | Vd ([1]; male, cynomolgus, cynomolgus monkey, plasma, intravenous 3 mg/kg, read-out: Vdss): 0.794 ± 0.0882 L/kg | AUC(0-inf) [1, 5]: 10300 ± 1510 ng·h/mL | half-life [1, 5]: 4.07 ± 0.29 h | bioavailability ([1]; male, cynomolgus, cynomolgus monkey, plasma, oral 3 mg/kg vs intravenous 3 mg/kg, read-out: F (oral bioavailability)): 78.4 ± 5.4% | Freeze/thaw stability, mean percentage bias from the theoretical values ([2]; HQC 80 μg/mL): 1.6% | Freeze/thaw stability, mean percentage bias from the theoretical values ([2]; MQC 1 μg/mL): 2.3% | Frozen stability, mean percentage bias from the theoretical values ([2]; HQC 80 μg/mL): 7.0% | Frozen stability, mean percentage bias from the theoretical values ([2]; LQC 0.01 μg/mL): 2.0% | Frozen stability, mean percentage bias from the theoretical values ([2]; MQC 1 μg/mL): 4.2%

From article PMC10205807, “Cross-species comparison in nonclinical pharmacokinetics of lenvatinib by a simple HPLC with ultraviolet detection” (Scientific Reports, 2023)
